{"source": "patent US9675568B2", "about": "“Pharmaceutical compositions” (Symrise AG, priority 2012, dated 2017)", "tested_on": "cell line of human leucemic granulocytes (PMN)", "assay": "Respiratory burst: zymosan-triggered release of superoxide anions (ROS) measured with Luminol, with cell numbers", "type": "cell-based", "details": "for Cell numbers / Released ROS: compared with the standard (=100), average of triplicate determination; for Released ROS: zymosan-triggered, Luminol", "from_the_text": "In the course of cutaneous inflammations, leukocytes, such as, for example, the polymorphonuclear neutrophilic granulocytes (PMN), are stimulated by peptides, such as, for example, cytokines, to emit messenger substances, such as, for example, leucotriene, which are released from activated or necrotic cells in the dermis. These activated PMNs release not only proinflammatory cytokins, leucotrienes and proteases, but also ROS, such as, for example, superoxides and hypochlorite anions, which have the task of destroying pathogenic microbes or fungi which have penetrated it. This activity of the PMNs during inflammation is known as respiratory burst and can lead to additional tissue damage. To investigate to what extent the amide is able to prevent or reduce respiratory burst, a cell line of human leucemic granulocytes of these PMNS was incubated together with the test substances at 37° C. from 5% by volume of CO2. After the respiratory burst had been triggered by adding a yeast extract (zymosan) to the cell solution, the release of superoxide anions was determined by means of their reaction with Luminol. The values given are the cell numbers and the amount of released ROS in relative percentages compared with the standard as an average value of a measurement series with triplicate determination.", "data": [{"smiles": "COc1ccc(NC(=O)C2CC(C)CCC2C(C)C)cc1", "note": "(centres unmarked) [Menthane carboxylic acid-N-(4-methoxy-phenyl)-amide]", "values": [{"measurement": "Cell numbers", "setting": "0.001 % b.w. active", "value": "104 ± 1", "unit": "relative percentages"}, {"measurement": "Released ROS", "setting": "0.001 % b.w. active", "value": "37 ± 25", "unit": "relative percentages"}, {"measurement": "Cell numbers", "setting": "0.01 % b.w. active", "value": "94 ± 3", "unit": "relative percentages"}, {"measurement": "Released ROS", "setting": "0.01 % b.w. active", "value": "9 ± 4", "unit": "relative percentages"}, {"measurement": "Cell numbers", "setting": "0.1 % b.w. active", "value": "93 ± 1", "unit": "relative percentages"}, {"measurement": "Released ROS", "setting": "0.1 % b.w. active", "value": "8 ± 4", "unit": "relative percentages"}, {"measurement": "Damage to the granulocytes", "setting": "summary in words of Table 1", "value": "without damaging the granulocytes"}, {"measurement": "Effect on the respiratory burst of human granulocytes", "setting": "summary in words of Table 1", "value": "strong inhibiting effect"}]}]}
